Reference: ChEMBL document CHEMBL4304804, “Synthesis and biological evaluation of calycanthaceous alkaloid analogs” (Bioorg Med Chem, 2019)
pIC50: −log10 of the molar value. ≈ marks a conversion by molar mass, not a printed value. Calls of active or inactive are those of the source. The calls are words filed in the database; no cut-off is given here.

How the values were obtained:
[1] = system: Verticillium dahliae; assay: Antifungal activity against Verticillium dahliae assessed as reduction in fungal cell growth incubated for 48 hrs by serial dilution method; assay type: functional
[2] = system: Fusarium oxysporum f. sp. vasinfectum; assay: Antifungal activity against Fusarium oxysporum sp. vasinfectum assessed as reduction in fungal cell growth incubated for 48 hrs by serial dilution method; assay type: functional
[3] = system: Cytospora; assay: Antifungal activity against Cytospora juglandis assessed as reduction in fungal cell growth incubated for 48 hrs by serial dilution method; assay type: functional
[4] = system: Aspergillus flavus; assay: Antifungal activity against Aspergillus flavus assessed as reduction in fungal cell growth incubated for 48 hrs by serial dilution method; assay type: functional
[5] = system: Penicillium citrinum; assay: Antifungal activity against Penicillium citrinum assessed as reduction in fungal cell growth incubated for 48 hrs by serial dilution method; assay type: functional
[6] = system: Fusarium oxysporum; assay: Antifungal activity against Fusarium oxysporum assessed as reduction in fungal cell growth incubated for 48 hrs by serial dilution method; assay type: functional
[7] = system: Colletotrichum orbiculare; assay: Antifungal activity against Colletotrichum orbiculare assessed as reduction in fungal cell growth incubated for 48 hrs by serial dilution method; assay type: functional
[8] = system: Aspergillus niger; assay: Antifungal activity against Aspergillus niger assessed as reduction in fungal cell growth incubated for 48 hrs by serial dilution method; assay type: functional
[9] = system: Curvularia lunata; assay: Antifungal activity against Curvularia lunata assessed as reduction in fungal cell growth incubated for 48 hrs by serial dilution method; assay type: functional
[10] = system: Escherichia coli; assay: Antibacterial activity against Escherichia coli assessed as reduction in bacterial cell growth incubated for 24 hrs by filter paper assay; assay type: functional
[11] = system: Pseudomonas aeruginosa; assay: Antibacterial activity against Pseudomonas aeruginosa assessed as reduction in bacterial cell growth incubated for 24 hrs by filter paper assay; assay type: functional
[12] = system: Ralstonia solanacearum; assay: Antibacterial activity against Ralstonia solanacearum assessed as reduction in bacterial cell growth incubated for 24 hrs by filter paper assay; assay type: functional
[13] = system: Bacillus cereus; assay: Antibacterial activity against Bacillus cereus assessed as reduction in bacterial cell growth incubated for 24 hrs by filter paper assay; assay type: functional
[14] = system: Staphylococcus aureus; assay: Antibacterial activity against Staphylococcus aureus assessed as reduction in bacterial cell growth incubated for 24 hrs by filter paper assay; assay type: functional
[15] = system: Candida; assay: Antifungal activity against […] assessed as reduction in fungal cell growth incubated for 48 hrs by serial dilution method; assay type: functional
[16] = system: Cryptococcus neoformans; assay: Antifungal activity against Cryptococcus neoformans assessed as reduction in fungal cell growth incubated for 48 hrs by serial dilution method; assay type: functional
[17] = system: Candida tropicalis; assay: Antifungal activity against Candida tropicalis assessed as reduction in fungal cell growth incubated for 48 hrs by serial dilution method; assay type: functional
[18] = target: Acetylcholinesterase (Electrophorus electricus, UniProt O42275); assay: Inhibition of electric eel AChE by Ellman's colorimetry
Sequence of Acetylcholinesterase (O42275 whole entry): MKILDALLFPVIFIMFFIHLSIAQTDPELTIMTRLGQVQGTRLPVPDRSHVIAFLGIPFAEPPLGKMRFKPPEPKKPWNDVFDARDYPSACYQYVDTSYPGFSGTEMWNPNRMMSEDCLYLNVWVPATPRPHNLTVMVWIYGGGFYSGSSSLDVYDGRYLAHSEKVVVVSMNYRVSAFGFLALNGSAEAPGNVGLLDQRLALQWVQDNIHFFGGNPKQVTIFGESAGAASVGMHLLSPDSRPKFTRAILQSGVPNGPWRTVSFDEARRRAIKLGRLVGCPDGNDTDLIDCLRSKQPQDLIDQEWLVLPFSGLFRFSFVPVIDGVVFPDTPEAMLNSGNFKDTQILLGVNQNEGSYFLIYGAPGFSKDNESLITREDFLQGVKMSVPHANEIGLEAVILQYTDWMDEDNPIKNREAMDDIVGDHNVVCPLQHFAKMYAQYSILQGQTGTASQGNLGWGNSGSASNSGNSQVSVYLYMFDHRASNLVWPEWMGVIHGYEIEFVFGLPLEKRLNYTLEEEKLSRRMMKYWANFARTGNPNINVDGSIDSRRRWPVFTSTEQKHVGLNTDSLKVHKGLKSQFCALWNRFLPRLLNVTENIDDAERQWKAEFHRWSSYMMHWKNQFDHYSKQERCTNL

Row | Compound | MIC [1] | MIC [2] | MIC [3] | MIC [4] | MIC [5] | MIC [6] | MIC [7] | MIC [8] | MIC [9] | MIC [10] | MIC [11] | MIC [12] | MIC [13] | MIC [14] | MIC [15] | MIC [16] | MIC [17] | pIC50 [18]
1 | Cc1cccc(CN2c3ccccc3C3(Cc4cccc(C)c4)CCN(C(=O)COc4ccccc4)C23)c1 (stereo not given) | 250 µg/mL (≈ 497 µM) | 250 µg/mL (≈ 497 µM) | 125 µg/mL (≈ 249 µM) | 250 µg/mL (≈ 497 µM) | 250 µg/mL (≈ 497 µM) | 250 µg/mL (≈ 497 µM) | 250 µg/mL (≈ 497 µM) | 250 µg/mL (≈ 497 µM) | inactive | inactive | inactive | inactive | 250 µg/mL (≈ 497 µM) | inactive | 250 µg/mL (≈ 497 µM) | inactive | 125 µg/mL (≈ 249 µM) | 5.20
2 | CCCCC(=O)N1CCCC2(O)c3ccccc3N(C)C12 (stereo not given) | 250 µg/mL (≈ 867 µM) | inactive | inactive | inactive | inactive | inactive | inactive | inactive | inactive | 250 µg/mL (≈ 867 µM) | 250 µg/mL (≈ 867 µM) | 62.5 µg/mL (≈ 217 µM) | inactive | 125 µg/mL (≈ 433 µM) | inactive | inactive | inactive | 4.56
3 | C[C@@H]1[C@H](O)[C@@H](C)/C=C/C=C/C=C/C=C/C=C/C=C/C=C/[C@H](O[C@@H]2O[C@H](C)[C@@H](O)[C@H](N)[C@@H]2O)C[C@@H]2O[C@](O)(C[C@@H](O)C[C@@H](O)[C@H](O)CC[C@@H](O)C[C@@H](O)CC(=O)O[C@H]1C)C[C@H](O)[C@H]2C(=O)O [AMPHOTERICIN B] | – | – | – | – | – | – | – | – | – | – | – | – | – | – | 250 µg/mL (≈ 271 µM) | 1.96 µg/mL (≈ 2.12 µM) | – | –
4 | Cc1cccc(CN2c3ccccc3C3(Cc4cccc(C)c4)CCN(C(=O)C(F)(F)F)C23)c1 (stereo not given) | inactive | inactive | 250 µg/mL (≈ 538 µM) | 250 µg/mL (≈ 538 µM) | inactive | 250 µg/mL (≈ 538 µM) | inactive | inactive | inactive | inactive | inactive | inactive | inactive | inactive | inactive | inactive | inactive | 5.47
5 | Cc1ccccc1CN1c2ccccc2C2(Cc3ccccc3C)CCN(C(=O)c3ccccc3C)C12 (stereo not given) | 250 µg/mL (≈ 514 µM) | 250 µg/mL (≈ 514 µM) | 250 µg/mL (≈ 514 µM) | 250 µg/mL (≈ 514 µM) | 250 µg/mL (≈ 514 µM) | 250 µg/mL (≈ 514 µM) | inactive | 125 µg/mL (≈ 257 µM) | 62.5 µg/mL (≈ 128 µM) | inactive | inactive | 125 µg/mL (≈ 257 µM) | 250 µg/mL (≈ 514 µM) | 250 µg/mL (≈ 514 µM) | 250 µg/mL (≈ 514 µM) | inactive | 250 µg/mL (≈ 514 µM) | 3.64
6 | Cc1cccc(C(=O)N2CCCC3(O)c4ccccc4N(C)C23)c1 (stereo not given) | 250 µg/mL (≈ 775 µM) | inactive | inactive | inactive | inactive | inactive | inactive | inactive | inactive | inactive | 250 µg/mL (≈ 775 µM) | 62.5 µg/mL (≈ 194 µM) | inactive | 250 µg/mL (≈ 775 µM) | inactive | inactive | 250 µg/mL (≈ 775 µM) | 5.26
7 | CC1(C)S[C@@H]2[C@H](NC(=O)Cc3ccccc3)C(=O)N2[C@H]1C(=O)O [PENICILLIN G] | – | – | – | – | – | – | – | – | – | – | – | – | 7.81 µg/mL (≈ 23.4 µM) | 15.6 µg/mL (≈ 46.7 µM) | – | – | – | –
8 | N#Cc1c(Cl)c(Cl)c(Cl)c(C#N)c1Cl [CHLOROTHALONIL] | 31.2 µg/mL (≈ 118 µM) | 250 µg/mL (≈ 940 µM) | 62.5 µg/mL (≈ 235 µM) | 7.81 µg/mL (≈ 29.4 µM) | 15.6 µg/mL (≈ 58.8 µM) | 62.5 µg/mL (≈ 235 µM) | 250 µg/mL (≈ 940 µM) | 15.6 µg/mL (≈ 58.8 µM) | 125 µg/mL (≈ 470 µM) | – | – | – | – | – | – | – | – | –
9 | CN[C@@H]1[C@H](O[C@H]2[C@H](O[C@H]3[C@H](O)[C@@H](O)[C@H](N=C(N)N)[C@@H](O)[C@@H]3N=C(N)N)O[C@@H](C)[C@]2(O)C=O)O[C@@H](CO)[C@H](O)[C@H]1O [STREPTOMYCIN] | – | – | – | – | – | – | – | – | – | 31.2 µg/mL (≈ 53.7 µM) | inactive | 250 µg/mL (≈ 430 µM) | – | – | – | – | – | –
10 | COC(=O)Nc1nc2ccccc2[nH]1 [CARBENDAZIM] | 7.81 µg/mL (≈ 40.8 µM) | 62.5 µg/mL (≈ 327 µM) | 31.2 µg/mL (≈ 163 µM) | 7.81 µg/mL (≈ 40.8 µM) | 1.96 µg/mL (≈ 10.3 µM) | 125 µg/mL (≈ 654 µM) | 125 µg/mL (≈ 654 µM) | inactive | 250 µg/mL (≈ 1310 µM) | – | – | – | – | – | – | – | – | –
